{
  "source": "ChEMBL document CHEMBL3217714",
  "about": "“Synthesis and anti HSV-1 evaluation of novel indole-3,4-diones” (Medchemcomm, 2011)",
  "key": {"Vero [1]": {"tested_on": "Vero", "assay": "Cytotoxicity against African green monkey Vero cells at 1 to 100 uM compound in DMSO by trypan blue exclusion assay", "type": "cell-based", "conditions": "chlorocebus sabaeus"}, "Vero [2]": {"tested_on": "Vero", "assay": "Cytotoxicity against African green monkey Vero cells at 40 to 100 uM compound in water by trypan blue exclusion assay", "type": "cell-based", "conditions": "chlorocebus sabaeus"}, "Human alphaherpesvirus 1 [3]": {"tested_on": "Human alphaherpesvirus 1", "assay": "Antiviral activity against HSV-1 infected in African green monkey Vero cells at 10 to 100 uM by plaque reduction assay", "type": "functional, organism-based"}, "Human alphaherpesvirus 1 [4]": {"tested_on": "Human alphaherpesvirus 1", "assay": "Antiviral activity against HSV-1 infected in African green monkey Vero cells assessed as reduction in plaque formation at 10 to 100 uM by inverted microscopy", "type": "functional, organism-based"}},
  "note": "Calls of active or inactive are those of the source. No cut-off for these calls is given here.",
  "data": [
    {"smiles": "CC1N=C2CC(C)(C)CC(=O)C2C1=O", "note": "(stereo not given)", "values": [
      {"measurement": "Activity", "setting": "Vero [1]", "value": "Non-toxic"},
      {"measurement": "Activity", "setting": "Vero [2]", "value": "Non-toxic"},
      {"measurement": "inhibition", "setting": "Human alphaherpesvirus 1 [3]", "value": "Dose-dependent effect"}
    ]},
    {"smiles": "CC1N=C2CCCC(=O)C2C1=O", "note": "(stereo not given)", "values": [
      {"measurement": "Activity", "setting": "Vero [1]", "value": "Non-toxic"},
      {"measurement": "Activity", "setting": "Vero [2]", "value": "Non-toxic"},
      {"measurement": "inhibition", "setting": "Human alphaherpesvirus 1 [3]", "value": "Dose-dependent effect"}
    ]},
    {"smiles": "CC1CC(=O)C2C(=O)C(C)N=C2C1", "note": "(stereo not given)", "values": [
      {"measurement": "Activity", "setting": "Vero [1]", "value": "Non-toxic"},
      {"measurement": "Activity", "setting": "Vero [2]", "value": "Non-toxic"},
      {"measurement": "Activity", "setting": "Human alphaherpesvirus 1 [4]", "value": "Active"},
      {"measurement": "inhibition", "setting": "Human alphaherpesvirus 1 [3]", "value": "Dose-dependent effect"}
    ]}
  ]
}
